Measurements: patent publication US7473415B2, “Near infrared fluorescent contrast agent and method for fluorescence imaging” (Fuji Photo Film Co., Ltd., priority 2002, dated 2009)

Tested on: mouse colon carcinoma (colon 26 carcinoma)
Experiment: Fluorescence imaging test (Test Example 2), tumor bearing nude mice, excitation 740 nm
Type: in vivo
Protocol: Tumor bearing mice were prepared in the same manner as Test Example 1, and conditions for irradiation was the same as those explained in Test Example 1. Compound 5, Compound 7, and Compound 10 were used as test compounds. Each of the test compounds (0.5 mg/ml) was dissolved in physiological saline or phosphate buffer (pH 7.4) and administered to the mice via a tail vein at the dose of 5.0 mg/Kg. For comparison, the following compound (Compound B, 5 mg/kg, i.v.) was administered to the mice.
Light was generated using a tunable, pulsed, solid state laser system consisting of an optical parametric oscillator (OPO) pumped by the third harmonic of a Nd:Yag laser (Coherent Inc.). An excitation wavelength of λex=740 nm was chosen and guided with an optical fiber to the tumor bearing nude mice. The dye-specific fluorescence exitance was imaged using a filter combination (Corion) and an intensified CCD camera (Roper Scientific.) at different times after dye administration (FIG. 4). Fluorescence imagings were taken before administration, and 1 min, 10 min, 30 min, 60 min, 2 hours, 4 hours, 24 hours after intravenous dye administration via the lateral tail venous at a standard dose of 5 mg/kg. In the first 60 min, the body temperature of the animals was kept at 38° C. with heating pad. Fluorescence imaging properties of the compounds were compared in nude mice tumor models. […]

| SMILES | tumor imaging as compared to the reference compound (Compound B) (5.0 mg/Kg via tail vein) | position of tumor within 1 hour after the administration (5 mg/kg, i.v., FIG. 8) |
| --- | --- | --- |
| CC(/C=C/C=C1/N(CCC(=O)NC(CC(=O)O)C(=O)O)c2ccc3ccccc3c2C1(C)C)=C\C=C\C1=[N+](CCC(=O)NC(CC(=O)O)C(=O)O)c2ccc3ccccc3c2C1(C)C (centres unmarked) [Compound 5] | clear images of tumors at a shorter time | – |
| CC1(C)C(/C=C/C=C/C=C/C=C2/N(CCCCS(=O)(=O)[O-])c3ccc(C(=O)NCC(O)C(O)C(O)C(O)CO)cc3C2(C)C)=[N+](CCCCS(=O)(=O)[O-])c2ccc(C(=O)NCC(O)C(O)C(O)C(O)CO)cc21.[Na+] (centres unmarked) [Compound B] | – | not clear |
